In paper PMC7827628, “Effect of Sulfonamides and Their Structurally Related Derivatives on the Activity of ι-Carbonic Anhydrase from Burkholderia territorii” (International Journal of Molecular Sciences, 2021):

Target: BteCAι
Experiment: stopped-flow CO2 hydration assay
Format: biochemical, Burkholderia territorii
Settings: CO2 substrate; 20 °C, pH 7.5, 10 mM HEPES (methods give 20 mM TRIS pH 8.3, 20 mM NaClO4); 15 min preincubation

Question: Which Ki does the source give for `CC1(C)O[C@@H]2[C@@H](CO[C@@]3(COS(N)(=O)=O)OC(C)(C)O[C@@H]23)O1` [TPM, topiramate] here?
Answer: 787 nM

Question: With `NS(=O)(=O)NCCNc1nonc1/C(=N/O)Nc1ccc(F)c(Br)c1` [EPA, epacadostat] as the compound, how does the Ki read?
Answer: 955 nM

Question: How did the Ki turn out when `NS(=O)(=O)c1ccc(N2CCCCS2(=O)=O)cc1` [SLT, sulthiame] was run?
Answer: 954 nM

Question: For `NCc1ccc(S(N)(=O)=O)cc1` [compound 5, 5], which Ki is on record?
Answer: 97 nM

Question: With `Nc1ccc(S(N)(=O)=O)cc1Br` [compound 9, 9] as the compound, how does the Ki read?
Answer: 96 nM

Question: `NS(=O)(=O)c1ccc(S(=O)(=O)Nc2cccc3c(Cl)c[nH]c23)cc1` [IND, Indisulam] was tested. Which Ki did it give?
Answer: 638 nM

Question: For `NS(=O)(=O)c1nnc(NS(=O)(=O)c2ccccc2)s1` [BZA, benzolamide], which Ki is on record?
Answer: 724 nM

Question: With `NS(=O)(=O)Cc1noc2ccccc12` [ZNS, Zonisamide] as the compound, how does the Ki read?
Answer: 806 nM

Question: How did the Ki turn out when `Nc1nccc(Nc2ccc(S(N)(=O)=O)cc2)n1` [compound 19, 19] was run?
Answer: 93 nM

Question: Which Ki does the source give for `CCN[C@H]1CN(CCCOC)S(=O)(=O)c2sc(S(N)(=O)=O)cc21` [BRZ, brinzolamide] here?
Answer: 3700 nM

Question: Which Ki does the source give for `NS(=O)(=O)c1cc2c(cc1Cl)NCNS2(=O)=O` [HCT, hydrochlorothiazide] here?
Answer: 780 nM

Question: Which Ki does the source give for `Cc1ccc(-c2cc(C(F)(F)F)nn2-c2ccc(S(N)(=O)=O)cc2)cc1` [CLX, celecoxib] here?
Answer: 960 nM

Question: Which Ki does the source give for `Cc1onc(-c2ccccc2)c1-c1ccc(S(N)(=O)=O)cc1` [VLX, valdecoxib] here?
Answer: 934 nM

Question: For `NS(=O)(=O)c1cc(Cl)c(Cl)c(S(N)(=O)=O)c1` [DCP, dichlorphenamide], which Ki is on record?
Answer: 825 nM

Question: Which Ki does the source give for `O=C1NS(=O)(=O)c2ccccc21` [SAC, Saccharin] here?
Answer: 7080 nM

Question: Which Ki does the source give for `CCN1CCCC1CNC(=O)c1cc(S(N)(=O)=O)ccc1OC` (centres unmarked) [SLP, Sulpiride] here?
Answer: 958 nM

Question: How did the Ki turn out when `NC(N)=Nc1nc(CSCCC(N)=NS(N)(=O)=O)cs1` [FAM, Famotidine] was run?
Answer: 943 nM
